Values quoted from earlier work as cited in patent US20200113899A1, “STATIN COMPOSITIONS AND METHODS FOR USE IN TREATING SYNUCLEINOPATHIES” (CHASE THERAPEUTICS CORPORATION, priority 2017, published 2020).
Values belong to the compound of their own block, whether it stands above or below them.

Legend:
[1] = tested on: SH-SY5Y cells
[2] = tested on: alpha-synuclein; settings: transgenic mouse models
[3] = pramipexole 5 mg/day
[4] = tested on: alpha-synuclein; settings: Parkinson patients, therapeutic doses, compared with pre-treatment values; magnitude of the effect small
[5] = 535 PD patients

SMILES: CC(C)c1nc(N(C)S(C)(=O)=O)nc(-c2ccc(F)cc2)c1/C=C/[C@@H](O)C[C@@H](O)CC(=O)O [rosuvastatin, (3R,5S,6E)-7-[4-(4-Fluorophenyl)-2-(N-methylmethanesulfonamido)-6-(propan-2-yl)pyrimidin-5-yl]-3,5-dihydroxyhept-6-enoic acid]
- effect against rotenone-induced neurotoxicity [1]: neuroprotective effect
- α-synuclein expression [1]: modulation

SMILES: CC[C@H](C)C(=O)O[C@H]1C[C@@H](C)C=C2C=C[C@H](C)[C@H](CC[C@@H]3C[C@@H](O)CC(=O)O3)[C@H]21 [lovastatin, (1S,3R,7S,8S,8aR)-8-{2-[(2R,4R)-4-Hydroxy-6-oxooxan-2-yl]ethyl}-3,7-dimethyl-1,2,3,7,8,8a-hexahydronaphthalen-1-yl (2S)-2-methylbutanoate]
- alpha-synuclein accumulation and oxidation [2]: ameliorated

- patients with nausea [3]: 76%
- patients with vomiting [3]: 39%
SMILES: CCCN[C@H]1CCc2nc(N)sc2C1 [pramipexole, (S)-6-propylamino-4,5,6,7-tetrahydro-1,3-benzothiazole-2-amine]
- patients not able to complete the study ([3]; presumably because of intolerable GI adverse events): 36%
- relative expression of alpha-synuclein [4]: significantly lowered
- neuroprotective (disease modifying) activity [5]: failed to evidence neuroprotective (i.e., disease modifying) activity
